{
  "source": "patent US20160017312A1",
  "about": "“METHOD FOR MODULATING A BACTERIAL INVASION SWITCH” (priority 2012, published 2016)",
  "tested_on": "S. meliloti cells",
  "assay": "Whole cell motility (swimming colonies) with added calcium",
  "format": "cell-based, Sinorhizobium meliloti",
  "conditions": "1 mM Ca; protease active, non-swimming S. meliloti cells",
  "procedure": "Example 2. In no calcium or low calcium condition, most of ExoRm is in the monomeric form sensitive to protease digestion. Adding 1 mM or more Ca will turn ExoRm into dimeric form, preventing protease from binding and digesting ExoRm. So Ca is an indirect inhibitor of the protease. […] This is a typical indirect inhibitor. In the same fashion, most ions are indirect inhibitors of ExoRm protease.\nExample 1. Whole cell motility assay: The whole cell motility assay is based on the fact that inhibition of the protease lead to ExoRm increase and the cell becoming motile. The initial condition may be set with either low pH or low ion concentration, so that S. meliloti cells will form non-swimming colonies. The putative direct or indirect inhibitors can be mixed with S. meliloti cells in soft agar plates. The ones that can make S. meliloti cells to form swimming colonies are the potential direct or indirect inhibitors.\nBacterial cell motility was examined using swarming plates containing 0.3% agar as described previously with some modifications. Briefly, fresh cell cultures were prepared and diluted to OD600 of 0.1. Then 2 μL of each diluted culture was inoculated into LB/MC soft agar plate and incubated for 2-3 days to determine colony size.",
  "data": [
    {"smiles": "[Ca+2]", "note": "[Ca]", "values": [
      {"measurement": "effect on swimming of S. meliloti cells", "result": "turn protease active, non-swimming S. meliloti cells into swimming cells"}
    ]}
  ]
}
